Patent US12540131B2 (Merck Sharp & Dohme LLC, priority 2019, dated 2026)

Target: GST tagged truncated human mutant G2019S LRRK2 (Homo sapiens (Human), UniProt Q5S007, G2019S)
Test: LRRK2 Km ATP LanthaScreen Assay
Assay type: biochemical
Details: G2019S LRRK2, 134 μM ATP (Km ATP), mean values
In short: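 Enzyme (GST-tagged, truncated) was preincubated with compound for 15 min at RT in 50 mM Tris pH 8.5, 10 mM MgCl2, 0.01% Brij-35, 1 mM EGTA, 2 mM DTT and 0.05 mM orthovanadate. Fluorescein-LRRKtide and 134 μM ATP (Km) were then added for 90 min. EDTA and Tb-anti-pERM antibody stopped the reaction; the TR-FRET 520/495 ratio gave 4-parameter IC50s, reported as mean pIC50.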

Sequence of GST tagged truncated human mutant G2019S LRRK2 (Q5S007 970-2527 G2019S): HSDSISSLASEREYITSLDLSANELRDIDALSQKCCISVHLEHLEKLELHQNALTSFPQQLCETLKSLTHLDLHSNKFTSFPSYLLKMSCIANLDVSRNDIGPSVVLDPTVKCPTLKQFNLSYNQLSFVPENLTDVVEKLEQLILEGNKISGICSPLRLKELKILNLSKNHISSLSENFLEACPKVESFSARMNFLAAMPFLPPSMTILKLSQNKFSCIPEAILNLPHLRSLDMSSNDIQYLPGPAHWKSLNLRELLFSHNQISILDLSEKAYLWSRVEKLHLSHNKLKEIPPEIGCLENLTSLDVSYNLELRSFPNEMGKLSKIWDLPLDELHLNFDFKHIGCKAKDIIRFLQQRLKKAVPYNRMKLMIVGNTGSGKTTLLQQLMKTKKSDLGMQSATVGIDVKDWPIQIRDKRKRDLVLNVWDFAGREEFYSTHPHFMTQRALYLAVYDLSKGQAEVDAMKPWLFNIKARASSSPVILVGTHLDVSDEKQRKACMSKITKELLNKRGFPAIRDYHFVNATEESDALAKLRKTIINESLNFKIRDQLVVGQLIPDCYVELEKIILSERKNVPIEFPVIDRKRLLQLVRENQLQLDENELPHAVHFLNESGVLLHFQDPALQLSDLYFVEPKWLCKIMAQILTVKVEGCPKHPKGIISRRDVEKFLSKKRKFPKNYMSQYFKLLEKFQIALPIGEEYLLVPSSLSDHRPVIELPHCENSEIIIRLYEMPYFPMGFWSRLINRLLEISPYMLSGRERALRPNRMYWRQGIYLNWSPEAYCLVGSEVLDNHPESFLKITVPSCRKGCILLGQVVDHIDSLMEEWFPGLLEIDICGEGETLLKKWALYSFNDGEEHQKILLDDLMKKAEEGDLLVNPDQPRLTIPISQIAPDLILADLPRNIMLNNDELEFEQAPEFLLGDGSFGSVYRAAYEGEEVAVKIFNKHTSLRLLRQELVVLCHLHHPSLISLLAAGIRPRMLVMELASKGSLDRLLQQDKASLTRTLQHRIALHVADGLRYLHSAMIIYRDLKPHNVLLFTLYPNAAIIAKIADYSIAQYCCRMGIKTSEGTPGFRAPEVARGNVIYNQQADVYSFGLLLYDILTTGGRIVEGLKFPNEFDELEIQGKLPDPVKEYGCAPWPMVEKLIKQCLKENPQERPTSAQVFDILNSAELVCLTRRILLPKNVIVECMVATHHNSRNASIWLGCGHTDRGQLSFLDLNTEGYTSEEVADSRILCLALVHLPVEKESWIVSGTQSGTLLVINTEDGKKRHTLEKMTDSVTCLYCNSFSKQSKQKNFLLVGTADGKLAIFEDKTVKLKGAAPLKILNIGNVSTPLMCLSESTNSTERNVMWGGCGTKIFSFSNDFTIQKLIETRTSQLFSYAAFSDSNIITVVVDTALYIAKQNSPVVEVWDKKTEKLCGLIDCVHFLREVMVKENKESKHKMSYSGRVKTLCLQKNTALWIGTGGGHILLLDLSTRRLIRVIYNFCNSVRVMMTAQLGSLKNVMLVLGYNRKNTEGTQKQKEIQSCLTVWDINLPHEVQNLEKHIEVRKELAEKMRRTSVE

**Q.** How did the “LRRK2 pIC50” value turn out when `[2H]C([2H])([2H])n1nc(C)cc1Nc1ncc2cc(Cl)c(C3CCN([C@H]4COC[C@H]4O)CC3)cc2n1` (single isomer, unassigned) [Ex-2.69, (3S,4S) or (3R,4R) 4-(4-(6-chloro-2-((3-methyl-1-(methyl-d3)-1H-pyrazol-5-yl)amino)quinazolin-7-yl)piperidin-1-yl)tetrahydrofuran-3-ol] was run?
**A.** Its value is 8.21.

**Q.** With `Cc1c(Nc2ncc3cc(Cl)c(C4CCN([C@@]5(C)COC[C@H]5O)CC4)cc3n2)cnn1C1CC1` (single isomer, unassigned) [Ex-1.15, (3S,4S) or (3R,4R) 4-(4-(6-chloro-2-((1-cyclopropyl-5-methyl-1H-pyrazol-4-yl)amino)quinazolin-7-yl)piperidin-1-yl)-4-methyltetrahydrofuran-3-ol] as the compound, how does the “LRRK2 pIC50” value read?
**A.** Its value is 8.16.

**Q.** `N#CC1COCC1N1CCC(c2cc3nc(Nc4cnn(C5CC5)c4Cl)ncc3cc2Cl)CC1` (single isomer, unassigned) [Ex-4.102, (3S,4S) or (3R,4R) or (3S,4R) or (3R,4S) 4-(4-(6-chloro-2-((5-chloro-1-cyclopropyl-1H-pyrazol-4-yl)amino)quinazolin-7-yl)piperidin-1-yl)tetrahydrofuran-3-carbonitrile] was tested. Which “LRRK2 pIC50” value did it give?
**A.** Its value is over 9.20.

**Q.** How did the “LRRK2 pIC50” value turn out when `CO[C@H]1COC[C@H]1N1CC[C@@H](c2cc3nc(Nc4cnn(C5CC5)c4Cl)ncc3cc2C)[C@H](F)C1` (single isomer, unassigned) [Ex-4.250, (3S,4S)(3S,4S) or (3S,4S)(3R,4R) or (3R,4R)(3S,4S) or (3R,4R)(3R,4R) N-(5-chloro-1-cyclopropyl-1H-pyrazol-4-yl)-7-[3-fluoro-1-(4-methoxyoxolan-3-yl)piperidin-4-yl]-6-methylquinazolin-2-amine] was run?
**A.** The value was 8.22.

**Q.** `Cc1nsc(Nc2ncc3cc(Cl)c([C@@H]4CCN(C5COC[C@H]5O)C[C@H]4F)cc3n2)c1Cl` (single isomer, unassigned) [Ex-4.121, (3S,4S)(3S,4S) or (3S,4S)(3R,4R) or (3R,4R)(3S,4S) or (3R,4R)(3R,4R) 4-{6-chloro-2-[(4-chloro-3-methyl-1,2-thiazol-5-yl)amino]quinazolin-7-yl}-3-fluoropiperidin-1-yl]oxolan-3-ol] was tested. Which “LRRK2 pIC50” value did it give?
**A.** The value was 8.92.

**Q.** With `Cc1cc2cnc(Nc3cc(C(F)(F)F)nn3C)nc2cc1C1CCN([C@]2(C)COC[C@@H]2O)CC1` (single isomer, unassigned) [Ex-5.15, (3S,4S) or (3R,4R) 4-methyl-4-[4-(6-methyl-2-{[1-methyl-3-(trifluoromethyl)-1H-pyrazol-5-yl]amino}quinazolin-7-yl)piperidin-1-yl]oxolan-3-ol] as the compound, how does the “LRRK2 pIC50” value read?
**A.** Its value is 8.42.

**Q.** Which “LRRK2 pIC50” value does the source give for `Cc1cc2cnc(Nc3cnn(CC(C)(C)O)c3C)nc2cc1[C@@H]1CCN(C2COC2)C[C@H]1F` (single isomer, unassigned) [Ex-5.5, (3S,4S) or (3R,4R) 1-[4-({7-[3-fluoro-1-(oxetan-3-yl)piperidin-4-yl]-6-methylquinazolin-2-yl}amino)-5-methyl-1H-pyrazol-1-yl]-2-methylpropan-2-ol] here?
**A.** Its value is 8.37.

**Q.** Which “LRRK2 pIC50” value does the source give for `Cn1nc(C2CC2)cc1Nc1ncc2cc(Cl)c(C3CCN(C4COC4)CC3)cc2n1` [Ex-2.62, 6-chloro-N-(3-cyclopropyl-1-methyl-1H-pyrazol-5-yl)-7-[1-(oxetan-3-yl)piperidin-4-yl]quinazolin-2-amine] here?
**A.** The value was 7.88.

**Q.** How did the “LRRK2 pIC50” value turn out when `Clc1cc2cnc(Nc3cnn(C4CC4)c3Cl)nc2cc1C1CCN(C2COC2)CC1` [Ex-8.8, 6-chloro-N-(5-chloro-1-cyclopropyl-1H-pyrazol-4-yl)-7-[1-(oxetan-3-yl)piperidin-4-yl]quinazolin-2-amine] was run?
**A.** The value was over 9.20.

**Q.** With `Cc1c(Nc2ncc3cc(Cl)c(C4CCN(C5CC[C@@H]5O)CC4)cc3n2)cnn1C1CC1` (single isomer, unassigned) [Ex-1.6, (1R,2S) or (1R,2R) or (1S,2S) or (1S,2R) 2-(4-(6-chloro-2-((1-cyclopropyl-5-methyl-1H-pyrazol-4-yl)amino)quinazolin-7-yl)piperidin-1-yl)cyclobutan-1-ol] as the compound, how does the “LRRK2 pIC50” value read?
**A.** The value was over 9.20.

**Q.** Which “LRRK2 pIC50” value does the source give for `CC1OCC1N1CCC(c2cc3nc(Nc4cnn(CC(C)(C)O)c4Cl)ncc3cc2Cl)CC1` (single isomer, unassigned) [Ex-4.76, (2R,3R) or (2S,3S) or (2S,3R) or (2R,3S) 1-[5-chloro-4-({6-chloro-7-[1-(2-methyloxetan-3-yl)piperidin-4-yl]quinazolin-2-yl}amino)-1H-pyrazol-1-yl]-2-methylpropan-2-ol] here?
**A.** The value was over 9.20.

**Q.** With `Cc1cc2cnc(Nc3cnn(C4CC4)c3C)nc2cc1[C@H]1CCN(C2COC2)C[C@@H]1F` (single isomer, unassigned) [Ex-5.4, (3S,4S) or (3R,4R) N-(1-cyclopropyl-5-methyl-1H-pyrazol-4-yl)-7-[3-fluoro-1-(oxetan-3-yl)piperidin-4-yl]-6-methylquinazolin-2-amine] as the compound, how does the “LRRK2 pIC50” value read?
**A.** The value was 8.75.

**Q.** `C[C@@]1(N2CCC(c3cc4nc(Nc5cnn(C6CC6)c5Cl)ncc4cc3Cl)CC2)COC[C@@H]1O` (single isomer, unassigned) [Ex-1.7, (3R,4R)- or (3S,4S)-4-(4-(6-chloro-2-((5-chloro-1-cyclopropyl-1H-pyrazol-4-yl)amino)quinazolin-7-yl)piperidin-1-yl)-4-methyltetrahydrofuran-3-ol] was tested. Which “LRRK2 pIC50” value did it give?
**A.** Its value is over 9.20.

**Q.** `Cc1c(Nc2ncc3cc(Cl)c(C4CCN(C5(C)COC5)CC4)cc3n2)cnn1C(C)(C)C#N` [Ex-2.20, 2-[4-({6-chloro-7-[1-(3-methyloxetan-3-yl)piperidin-4-yl]quinazolin-2-yl}amino)-5-methyl-1H-pyrazol-1-yl]-2-methylpropanenitrile] was tested. Which “LRRK2 pIC50” value did it give?
**A.** The value was over 9.20.

**Q.** For `Cn1nc(C(C)(C)C)cc1Nc1ncc2cc(Cl)c([C@@H]3CCN([C@]4(C)COC[C@@H]4O)C[C@H]3F)cc2n1` (single isomer, unassigned) [Ex-4.245, (3S,4S)(3S,4S) or (3S,4S)(3R,4R) or (3R,4R)(3S,4S) or (3R,4R)(3R,4R) 4-(4-{2-[(3-tert-butyl-1-methyl-1H-pyrazol-5-yl)amino]-6-chloroquinazolin-7-yl}-3-fluoropiperidin-1-yl)-4-methyloxolan-3-ol], which “LRRK2 pIC50” value is on record?
**A.** Its value is over 9.20.

Same assay, conditions: G2019S LRRK2, 134 μM ATP (Km ATP), mean values; read-out: LRRK2 pIC50 (converted)

**Q.** How did the IC50 turn out when `N#Cc1cc2cnc(Nc3cnn(C4CC4)c3Cl)nc2cc1[C@H]1CCN(C2COC2)C[C@@H]1F` (single isomer, unassigned) [Ex-6.1, (3R,4R) or (3S,4S) 2-((5-chloro-1-cyclopropyl-1H-pyrazol-4-yl)amino)-7-(3-fluoro-1-(oxetan-3-yl)piperidin-4-yl)quinazoline-6-carbonitrile] was run?
**A.** The IC50 was 1.91 nM.

**Q.** `Cc1c(Nc2ncc3cc(Cl)c(C4CCN(C5COC5)CC4)cc3n2)cnn1C1CCOC1` (single isomer, unassigned) [Ex-2.24, (S) or (R) 6-chloro-N-[5-methyl-1-(oxolan-3-yl)-1H-pyrazol-4-yl]-7-[1-(oxetan-3-yl)piperidin-4-yl]quinazolin-2-amine] was tested. Which IC50 did it give?
**A.** Its IC50 is 0.741 nM.

**Q.** Which IC50 does the source give for `Cc1nsc(Nc2ncc3cc(Cl)c(C4CCN(C5CCOC5)CC4)cc3n2)c1Cl` (single isomer, unassigned) [Ex-8.19, (S) or (R) 6-chloro-N-(4-chloro-3-methyl-1,2-thiazol-5-yl)-7-[1-(oxolan-3-yl)piperidin-4-yl]quinazolin-2-amine] here?
**A.** Its IC50 is 1.15 nM.

**Q.** With `Cc1cc2cnc(Nc3cnn(C4CC4(F)F)c3Cl)nc2cc1C1CCN([C@@H]2COC[C@@H]2O)CC1` (stereo in doubt) [Ex-2.34, 4-[4-(2-{[5-chloro-1-(2,2-difluorocyclopropyl)-1H-pyrazol-4-yl]amino}-6-methylquinazolin-7-yl)piperidin-1-yl]oxolan-3-ol] as the compound, how does the IC50 read?
**A.** Its IC50 is under 0.631 nM.
